Where two headings read alike, the source gives them in different places.
Assays:
[1] = sheep, in vivo, 5 mg/kg
Procedure: Cross-bred (Suffolk and Texel) sheep were divided into groups of 3 and 2. The mean weight of the sheep was about 40 kg.
The animals were not fasted prior to the administration of gentamicin. […] The catheter was removed upon completion of the study. […] The sedation lasted about 3 minutes. The animals that received gentamicin by the IV route were also sedated.
The first group of sheep (n=2) was given 0.25 ml of gentamicin solution (386 mg/ml) (5.0 mg/kg) into each nostril. The second group (n=3) received 0.25 ml of gentamicin solution (386 mg/ml) (5.0 mg/kg) containing 2 mg/ml LPC into each nostril. The third group (n=3) received 5.0 mg/kg gentamicin and 0.2 mg/kg LPC in combination with starch microspheres (1.9 mg gentamicin-/mg starch microspheres). The last group of sheep (n=3) was given 2 mg/kg gentamicin administered intravenously as a solution (40 mg/ml) through the jugular vein. Blood samples (2 ml) were collected through the jugular vein at 0, 8, 16, 24, 32, 45, 60, 90, 120, 180 and 240 min after drug administration. The serum was separated by centrifugation and the samples stored at -20° C. awaiting analysis. No heparin was added to any of the samples. The gentamicin level was determined by the EMIT technique (16).

[2] = cited from earlier work
[3] = Bioavailability enhancement by microspheres plus bioavailability increasing material (general statement)
From the text: The material selected for these studies has been lysophosphatidylcholine (described above).

[4] = parameters: species or system Male Wistar rats; settings: rat, in vivo
Procedure: The in situ rat model of Hirai et al (14) was used as modified by Fisher et al (15). Male Wistar rats of about 200 g were anaesthetized by intraperitoneal injection of 60 mg/kg of Pentobarbitone (Sagatal, 60 mg/ml). The rats were tracheotomized, the oesophagus sealed and the carotid artery cannulated.
A volume of the gentamicin solution containing 0.5% of the drug with and without added lysophosphatidylcholine (LPC) (0.2%) was instilled into the nasal cavity. Blood samples were withdrawn from the carotid artery at 0, 5, 10, 15, 30, 45, 60 and 120 min after drug administration. The gentamicin level was determined by the EMIT method (16).

[5] = intranasal, simple solution, versus intravenous; cited from earlier work
[6] = Zn-/Na-insulin nasal in rabbits, plasma glucose; assay type: in vivo, New Zealand White rabbits; settings: rabbit; for shape of plasma glucose curves versus s.c.: intranasal microspheres and LPC 2.5 IU/kg versus 0.6 IU/kg s.c.; for plasma glucose levels: intranasal microspheres and LPC, 2.5 IU/kg; for plasma glucose levels versus simple insulin solution: intranasal solution with 0.2% LPC, about 2.3 IU/kg
Procedure: Preparations of Zn-insulin (mainly hexamer form) or Na-insulin (mainly monomer/dimer forms) were administered nasally to rabbits either as free insulin or as a microsphere delivery system with lysophosphatidylcholine (LPC) as a bioavailability increasing material. The experiments were performed in replicate (n=4).
Non-fasted New Zealand White female rabbits of average weight 3.5 kg were used in this study.
A 40 IU/ml Zn- or Na-human insulin solution was prepared in buffer (1/75M Na2 HPO4) of pH 7.3-7.4. In some experiments 0.2% LPC was added.
A total of 200 μl of the solution (100 μl in each nostril) was administered intranasally equivalent to about 2.3 IU/kg using an Eppendorf pipette.
The rabbits were dosed s.c. with insulin at 0.8 IU/kg or 0.6 IU/kg from a 14 IU/ml or 10 IU/ml aqueous solution, respectively.
The dose of starch microspheres and insulin was fixed at 2.5 mg/kg and 2.5 IU/kg, respectively. The dose of LPC was 0.2 mg/kg. The average weight of the rabbits was 3.5 kg.
25 mg of microspheres were placed in a small glass vial and 250 μl of a 100 IU/ml insulin solution (Na- or Zn-insulin) was added followed by the 2 mg LPC and 250 μl of distilled water. The microspheres were then allowed to stand for 2 h at room temperature in contact with the insulin solution before freeze drying.
Approximately 15 mg of the freeze dried powder from each individual vial was filled into the applicator tubing, and this was stored in a dessicator until use.
Each rabbit was held on its back during, and for 10 second after, the application to ensure the delivery of the powdered formulation. Blood samples of 200 μl and 2 ml for glucose and insulin determination, respectively, were collected from the marginal ear vein at 10 and 5 min prior to the administration and at 5, 15, 30, 45, 60, 90, 120 and 180 min post-administration. […] The blood samples for glucose analysis were kept on crushed ice awaiting immediate analysis.

[7] = cited from earlier work; remark: listed apart in the source
[8] = nasal, cited from earlier work
[9] = Maximum loading capacity of albumin microspheres; assay type: physicochemical; settings: emulsion technique
Procedure: The active agent can be incorporated into the microspheres during their formulation or sorbed into/onto the system after preparation.
Albumin microspheres were prepared as described above by an emulsion technique with a stirring speed of 900 rpm and the model drug dissolved in the albumin solution at various concentrations.
Concentrations of 0.5, 2, 4 and 5% w/v Rose bengal were used. […] Due to the solution characteristics of sodium cromoglycate in water the highest concentration that could be used was […]. Thus, microspheres were manufactured from solutions containing 0.5, 1, 2 and 4% w/v sodium cromoglycate.

[10] = Zn-human insulin nasal, in situ rat model, plasma glucose; assay type: in vivo, male Wistar rats
Procedure: The Hirai's in situ model (as modified by Fisher) was used to study the nasal absorption of insulin using non-diabetic male Wistar Rats of 150 g fasted overnight. The rats were anaesthetized with an i.p. injection of 0.25 ml of Pentobarbitone (60 mg/ml).
A 250 IV/ml solution of Zinc (Zn)-human insulin was prepared in buffer (1/75M Na2 HPO4)) of pH 7.3. In some experiments 0.2% of LPC or for comparison 1% Glycodeoxycholate (GDC) were added to the preparation as absorption enhancers. The experiments were performed in replicate (n=4). 10 μl was administered into the nasal cavity equivalent to 16.67 IV/kg (2.5 IV/rat). Blood samples (0.2 ml) were collected into 5 ml fluoride oxalate tubes at 10, 6 and 2 min pre-administration and at 5, 10, 20, 40, 60, 90, 120, 180, 240 and 300 min post-administration. The blood was replaced by saline administered through the jugular vein.

[11] = hGH nasal, in situ rat model (ELISA); assay type: in vivo, male Wistar rats
Procedure: For all experiments biosynthetic hGH was used.
As before the experiments were performed using the rat in situ model described by Hirai and modified by Fisher.
Non-fasted male Wistar rats of about 200 g were divided into groups of 4 and anaesthetized using an i.p. injection of 0.35 ml of pentobarbitone (60 mg/ml).
Three different hGH preparations were administered to the rats namely a 10 mg/ml solution of hGH in potassium phosphate buffer (1/75M), pH=7.2, as before with the addition of 0.05% LPC and as before with the addition of 0.5% LPC.
20 μl (1 mg/kg) of either of the three preparations were administered intranasally by means of a plastic tubing.
All experiments were performed in replicate. Blood samples, 20 drops were collected and kept on ice at times 0, 5, 10, 20, 30, 40, 50, 60, 90, 120, 180, 240 and 300 min after the application. The plasma was separated and stored at -20° C. until analysis.

[12] = in vivo
[13] = microspheres with lysophosphatidylcholine
[14] = intranasal solution without enhancer, 1 mg/kg

gentamicin
bioavailability versus IV dose [1]: 57.3% | peak blood level [1]: 0.4 µg/mL | nasal absorption ([2]; into the nose, without enhancer): poorly absorbed | biological availability with bile salts ([2]; nasal, added bile salts): enhanced | enhancement concept, outcome ([3]; in vivo): successful | bioavailability [4]: poor bioavailability | peak level relative to solution alone [4]: five fold greater

CC(C)NC[C@H](O)COc1cccc2ccccc12 (racemic) [propanolol]
plasma levels [5]: identical to intravenous administration

NC(=O)CC[C@@H]1NC(=O)[C@H](Cc2ccccc2)NC(=O)[C@H](Cc2ccc(O)cc2)NC(=O)CCSSC[C@@H](C(=O)N2CCC[C@H]2C(=O)N[C@H](CCCN=C(N)N)C(=O)NCC(N)=O)NC(=O)[C@H](CC(N)=O)NC1=O [DDVAP, reference compound]
enhancement concept, outcome ([3]; in vivo): successful

Na-insulin: Na-insulin (mainly monomer/dimer forms)
shape of plasma glucose curves versus s.c. [6]: surprisingly similar to the ones obtained for the s.c. administration | plasma glucose levels [6]: even more drastic decreases | plasma glucose levels versus simple insulin solution [6]: lowered significantly

CC(=O)[C@H]1CC[C@H]2[C@@H]3CCC4=CC(=O)CC[C@]4(C)[C@H]3CC[C@]12C [progesterone]
time of peak concentration ([7]; nasal route): approximately 6 minutes | bioavailability, oral ([7]; oral route, compared to IV administration): ~1.2% | effectiveness, oral ([7]; oral route): largely ineffective

salmon calcitonin
plasma calcitonin increase ([8]; in combination with a surfactant): significant increase | AUC increase ([8]; with surfactant enhancer): 10 fold | plasma calcitonin ([8]; without enhancer): only trace amounts

O=C(O)c1cc(=O)c2c(OCC(O)COc3cccc4oc(C(=O)O)cc(=O)c34)cccc2o1 [sodium cromoglycate]
maximum loading capacity [9]: 137 μg per mg albumin microspheres

Zn-insulin: Zn-insulin (mainly hexamer form)
lowering of plasma glucose level ([10]; intranasal simple solution): not effective | plasma glucose level ([10]; intranasal, with 0.2% LPC): fast and significant drop | shape of plasma glucose curves versus s.c. [6]: surprisingly similar to the ones obtained for the s.c. administration | plasma glucose levels [6]: even more drastic decreases | plasma glucose levels versus simple insulin solution [6]: lowered significantly

calcitonin: calcitonin [reference compound]
enhancement concept, outcome [3, 13]: successful

hGH: biosynthetic hGH
nasal absorption [11, 14]: not absorbed at any significant degree | plasma level peak [11, 14]: about 3.5 ng/ml | effect of 0.05% LPC on absorption ([11]; intranasal with 0.05% LPC): no effect | AUC ([11]; intranasal with 0.5% LPC): very significant increase | plasma level peak ([11]; intranasal with 0.5% LPC, 1 mg/kg): about 57 ng/ml | bioavailability versus subcutaneous injection [12]: about 20% | plasma level with microspheres and LPC [12]: increased considerably | shape of profile ([12]; sc): flatter profile | enhancement concept, outcome [3, 13]: successful

O=C([O-])c1c(Cl)c(Cl)c(Cl)c(Cl)c1-c1c2cc(I)c(=O)c(I)c-2oc2c(I)c([O-])c(I)cc12.[Na+].[Na+] [Rose bengal]
maximum loading capacity [9]: 170 μg per mg albumin microspheres

B1: CCK: CCK (peptide, UniProt P06307 21-115, looked up)
Cholecystokinin: QPVPPADPAGSGLQRAEEAPRRQLRVSQRTDGESRAHLGALLARYIQQARKAPSGRMSIVKNLQNLDPSHRISDRDYMGWMDFGRRSAEEYEYPS
enhancement concept, outcome [3, 13]: successful
